Data from ChEMBL document CHEMBL3885861, “Open TG-GATES”.

Species on record: Rattus norvegicus
Test: Open TG-GATES - Regimen: Daily Repeat
Assay type: toxicity, organism-based, Sprague-Dawley
Set-up: regimen Daily Repeat, gender Male, age 6 weeks
Details: in vivo, po, 60 mg/kg, route gavage, dose level Middle; for APTT / Bas / Eos / Fbg / Hb / Ht / Lym / MCH / MCHC / MCV / Mono / Neu / PT / Plat / RBC / Ret / WBC: tissue Blood; for KIDNEY_L / KIDNEY_R / KIDNEY_TOTAL: tissue Kidney; for LIVER: tissue Liver; for A/G / ALP / ALT / AST / BUN / CRE / Ca / Cl / DBIL / GLC / IP / K / LDH / Na / PL / RALB / TBIL / TC / TG / TP / gamma-GTP: tissue Plasma

SMILES: Cn1c(=O)c2[nH]cnc2n(C)c1=O.O [THEOPHYLLINE]
- TERMINAL_BW (72 h, time 3 day): 242.6 g
- APTT (72 h, time 3 day): 21.7 s
- Bas (72 h, time 3 day): 0%
- Eos (72 h, time 3 day): 0.6%
- Fbg (72 h, time 3 day): 303.4 mg/dL
- Hb (72 h, time 3 day): 13.4 g/dL
- Ht (72 h, time 3 day): 40.4%
- Lym (72 h, time 3 day): 78.4%
- MCH (72 h, time 3 day): 20.8 pg
- MCHC (72 h, time 3 day): 33.2%
- MCV (72 h, time 3 day): 62.8 fL
- Mono (72 h, time 3 day): 3.2%
- Neu (72 h, time 3 day): 16.4%
- PT (72 h, time 3 day): 15.5 s
- Plat (72 h, time 3 day): 123.5 x10_4/uL
- RBC (72 h, time 3 day): 644.2 x10_4/ul
- Ret (72 h, time 3 day): 7.4%
- WBC (72 h, time 3 day): 126 x10_2/uL
- KIDNEY_L (72 h, time 3 day): 1 g
- KIDNEY_R (72 h, time 3 day): 1.1 g
- KIDNEY_TOTAL (72 h, time 3 day): 2.1 g
- LIVER (72 h, time 3 day): 10.8 g
- A/G (72 h, time 3 day): 1.2
- ALP (72 h, time 3 day): 1599.4 IU/L
- ALT (72 h, time 3 day): 44.2 IU/L
- AST (72 h, time 3 day): 69.2 IU/L
- BUN (72 h, time 3 day): 14.8 mg/dL
- CRE (72 h, time 3 day): 0.2 mg/dL
- Ca (72 h, time 3 day): 10.7 mg/dL
- Cl (72 h, time 3 day): 106.2 meq/L
- DBIL (72 h, time 3 day): 0 mg/dL
- GLC (72 h, time 3 day): 186 mg/dL
- IP (72 h, time 3 day): 8.4 mg/dL
- K (72 h, time 3 day): 4.2 meq/L
- LDH (72 h, time 3 day): 146.6 IU/L
- Na (72 h, time 3 day): 142 meq/L
- PL (72 h, time 3 day): 132.8 mg/dL
- RALB (72 h, time 3 day): 2.9 g/dL
- TBIL (72 h, time 3 day): 0.004 mg/dL
- TC (72 h, time 3 day): 80.4 mg/dL
- TG (72 h, time 3 day): 75 mg/dL
- TP (72 h, time 3 day): 5.3 g/dL
- gamma-GTP (72 h, time 3 day): 1.4 IU/L
- TERMINAL_BW ([…], time 7 day): 265.8 g
- TERMINAL_BW ([…], time 14 day): 313.9 g
- TERMINAL_BW ([…], time 28 day): 384.1 g
- APTT ([…], time 7 day): 23.4 s
- Bas ([…], time 7 day): 0%
- Eos ([…], time 7 day): 0.8%
- Fbg ([…], time 7 day): 299.4 mg/dL
- Hb ([…], time 7 day): 13.9 g/dL
- Ht ([…], time 7 day): 40.6%
- Lym ([…], time 7 day): 79%
- MCH ([…], time 7 day): 21.2 pg
- MCHC ([…], time 7 day): 34.2%
- MCV ([…], time 7 day): 61.9 fL
- Mono ([…], time 7 day): 2.8%
- Neu ([…], time 7 day): 16.2%
- PT ([…], time 7 day): 15.4 s
- Plat ([…], time 7 day): 109.7 x10_4/uL
- RBC ([…], time 7 day): 655.8 x10_4/ul
- Ret ([…], time 7 day): 5.4%
- WBC ([…], time 7 day): 123.4 x10_2/uL
- APTT ([…], time 14 day): 24.1 s
- Bas ([…], time 14 day): 0%
- Eos ([…], time 14 day): 0.8%
- Fbg ([…], time 14 day): 336.8 mg/dL
- Hb ([…], time 14 day): 14.5 g/dL
- Ht ([…], time 14 day): 42.9%
- Lym ([…], time 14 day): 77.8%
- MCH ([…], time 14 day): 20.6 pg
- MCHC ([…], time 14 day): 33.9%
- MCV ([…], time 14 day): 60.7 fL
- Mono ([…], time 14 day): 2.4%
- Neu ([…], time 14 day): 18%
- PT ([…], time 14 day): 15.1 s
- Plat ([…], time 14 day): 109.2 x10_4/uL
- RBC ([…], time 14 day): 706.4 x10_4/ul
- Ret ([…], time 14 day): 4.9%
- WBC ([…], time 14 day): 119.3 x10_2/uL
- APTT ([…], time 28 day): 25.6 s
- Bas ([…], time 28 day): 0%
- Eos ([…], time 28 day): 1%
- Fbg ([…], time 28 day): 330.2 mg/dL
- Hb ([…], time 28 day): 15.8 g/dL
- Ht ([…], time 28 day): 45.7%
- Lym ([…], time 28 day): 78%
- MCH ([…], time 28 day): 19.8 pg
- MCHC ([…], time 28 day): 34.5%
- MCV ([…], time 28 day): 57.3 fL
- Mono ([…], time 28 day): 3%
- Neu ([…], time 28 day): 16.8%
- PT ([…], time 28 day): 15.6 s
- Plat ([…], time 28 day): 99.5 x10_4/uL
- RBC ([…], time 28 day): 798 x10_4/ul
- Ret ([…], time 28 day): 3.3%
- WBC ([…], time 28 day): 104.8 x10_2/uL
- KIDNEY_L ([…], time 7 day): 1.2 g
- KIDNEY_R ([…], time 7 day): 1.2 g
- KIDNEY_TOTAL ([…], time 7 day): 2.4 g
- KIDNEY_L ([…], time 14 day): 1.3 g
- KIDNEY_R ([…], time 14 day): 1.3 g
- KIDNEY_TOTAL ([…], time 14 day): 2.6 g
- KIDNEY_L ([…], time 28 day): 1.5 g
- KIDNEY_R ([…], time 28 day): 1.5 g
- KIDNEY_TOTAL ([…], time 28 day): 3 g
- LIVER ([…], time 7 day): 11.6 g
- LIVER ([…], time 14 day): 13.8 g
- LIVER ([…], time 28 day): 16.3 g
- A/G ([…], time 7 day): 1.2
- ALP ([…], time 7 day): 1497.8 IU/L
- ALT ([…], time 7 day): 42.2 IU/L
- AST ([…], time 7 day): 77.6 IU/L
- BUN ([…], time 7 day): 17.6 mg/dL
- CRE ([…], time 7 day): 0.2 mg/dL
- Ca ([…], time 7 day): 10.4 mg/dL
- Cl ([…], time 7 day): 107 meq/L
- DBIL ([…], time 7 day): 0 mg/dL
- GLC ([…], time 7 day): 195.4 mg/dL
- IP ([…], time 7 day): 7.8 mg/dL
- K ([…], time 7 day): 4.3 meq/L
- LDH ([…], time 7 day): 175.4 IU/L
- Na ([…], time 7 day): 142.2 meq/L
- PL ([…], time 7 day): 140.2 mg/dL
- RALB ([…], time 7 day): 3 g/dL
- TBIL ([…], time 7 day): 0.006 mg/dL
- TC ([…], time 7 day): 72 mg/dL
- TG ([…], time 7 day): 86.8 mg/dL
- TP ([…], time 7 day): 5.6 g/dL
- gamma-GTP ([…], time 7 day): 1.6 IU/L
- A/G ([…], time 14 day): 1.1
- ALP ([…], time 14 day): 1338.2 IU/L
- ALT ([…], time 14 day): 43 IU/L
- AST ([…], time 14 day): 73.8 IU/L
- BUN ([…], time 14 day): 17 mg/dL
- CRE ([…], time 14 day): 0.2 mg/dL
- Ca ([…], time 14 day): 10.3 mg/dL
- Cl ([…], time 14 day): 105.6 meq/L
- DBIL ([…], time 14 day): 0 mg/dL
- GLC ([…], time 14 day): 181 mg/dL
- IP ([…], time 14 day): 8 mg/dL
- K ([…], time 14 day): 4.1 meq/L
- LDH ([…], time 14 day): 178 IU/L
- Na ([…], time 14 day): 142.2 meq/L
- PL ([…], time 14 day): 143.4 mg/dL
- RALB ([…], time 14 day): 3.1 g/dL
- TBIL ([…], time 14 day): 0.006 mg/dL
- TC ([…], time 14 day): 79 mg/dL
- TG ([…], time 14 day): 83.6 mg/dL
- TP ([…], time 14 day): 5.8 g/dL
- gamma-GTP ([…], time 14 day): 2.2 IU/L
- A/G ([…], time 28 day): 1.1
- ALP ([…], time 28 day): 1071.4 IU/L
- ALT ([…], time 28 day): 40.8 IU/L
- AST ([…], time 28 day): 67.8 IU/L
- BUN ([…], time 28 day): 16.2 mg/dL
- CRE ([…], time 28 day): 0.2 mg/dL
- Ca ([…], time 28 day): 10.3 mg/dL
- Cl ([…], time 28 day): 106 meq/L
- DBIL ([…], time 28 day): 0 mg/dL
- GLC ([…], time 28 day): 189.8 mg/dL
- IP ([…], time 28 day): 7.4 mg/dL
- K ([…], time 28 day): 4.1 meq/L
- LDH ([…], time 28 day): 137.6 IU/L
- Na ([…], time 28 day): 143.2 meq/L
- PL ([…], time 28 day): 135.8 mg/dL
- RALB ([…], time 28 day): 3.2 g/dL
- TBIL ([…], time 28 day): 0.024 mg/dL
- TC ([…], time 28 day): 71.2 mg/dL
- TG ([…], time 28 day): 97.4 mg/dL
- TP ([…], time 28 day): 6.1 g/dL
- gamma-GTP ([…], time 28 day): 1.8 IU/L
